Laboratory results taken from US6204295A, “Antioxidant compounds” (Orion Corporation, priority 1996, dated 2001).
Where two headings read alike, the source gives them in different places.

Experiments:
[1] = tested on: lipid peroxidation in rat liver microsomes; assay: Inhibition of ascorbate/ADP-FeCl3-induced lipid peroxidation in rat liver microsomes (TBA reactive material); type: biochemical, rat (Sprague-Dawley); settings: rat liver microsomes 1.2 mg protein/ml, pH 6.0, 20 min at 37° C., read-out: IC50 values for the inhibition of microsomal lipid peroxidation, initiated by Ascorbate/ADP-FeCl3
Description: (§2) Adult male Sprague-Dawley rats were decapitated, and the liver was excised and chilled in ice-cold 0.25 M sucrose solution. A 20% (w/v) liver homogenate was prepared in the sucrose solution (0° C.) with a homogenizer. Microsomes were prepared from the postmitochondrial (12000×g for 10 min at 4° C.) supernatant fluid by centrifugation (105000×g for 10 min at 4° C.).
(§3) The antioxidant properties of the compounds were estimated by their potency to inhibit t-butylhydroperoxide (t-BuOOH) or ascorbate/ADP-FeCl3 -induced lipid peroxidation in rat liver microsomes in vitro. In the t-BuOOH assay the buffer (50 mM sodium carbonate, pH 10.2, with 0.1 mM EDTA) was pipetted in a volume of 0.8 ml in the luminometer cuvette. 20 μl of diluted rat liver microsomes (final concentration 1.5 μg protein/ml) was added, followed by 6 μl of luminol (0.5 mg/ml) and test compounds. The reaction was initiated by 0.05 ml of 0.9 mM t-BuOOH at 33° C. The chemiluminescence was measured for about 45 min and the area under the curve was calculated. In the ascorbate/ADP-FeCl3 assay microsomes (final concentration 1.2 mg protein/ml) in 20 mM phosphate buffer, including 90 mM KCl, were incubated for 20 min at 37° C. in the presence of ascorbate (0.5 mM final concentration; pH of the buffer 6.0), ADP and FeCl3 (final concentrations 0.85 and 0.05 mM, respectively) and test compounds. Total incubation volume was 0.5 ml. The incubation was stopped by addition of 0.5 ml of 30% trichloroacetic acid plus 0.05 ml 2% butylated hydroxytoluene in ethanol. The extent of lipid peroxidation was estimated by the amount of thiobarbituric acid (TBA) reactive material formed.
(§4) IC50 value means concentration of test compound that inhibits lipid peroxidation by 50%.

[2] = tested on: lipid peroxidation in rat liver microsomes; assay: Inhibition of t-butylhydroperoxide-induced lipid peroxidation in rat liver microsomes (luminol chemiluminescence); type: biochemical, rat (Sprague-Dawley); settings: for antioxidant potency in the t-BuOOH test compared with butylated hydroxyanisole: in words, versus butylated hydroxyanisole; for IC50: t-BuOOH, rat liver microsomes 1.5 μg protein/ml, pH 10.2, 33° C., about 45 min, read-out: IC50 values for the inhibition of microsomal lipid peroxidation, initiated by t-Butylhydroperoxide
Description: as §2, §3, §4

[3] = biological target: T1, NADPH oxidase of the neutrophils (Homo sapiens, UniProt P04839); assay: Inhibition of reactive oxygen production (oxidative burst) by PMA-activated neutrophils, luminol enhanced chemiluminescence; type: cell-based; settings: for inhibition at 1000 µM: read-out: Inhibition of NADPH oxidase of the neutrophils at 1 mM
T1 construct: Neutrophils were isolated from 30 ml freshly drawn heparinized whole blood; endogenous in cells; host or cells: neutrophils isolated from freshly drawn heparinized whole blood
T1 sequence (P04839 2-570 limits assumed): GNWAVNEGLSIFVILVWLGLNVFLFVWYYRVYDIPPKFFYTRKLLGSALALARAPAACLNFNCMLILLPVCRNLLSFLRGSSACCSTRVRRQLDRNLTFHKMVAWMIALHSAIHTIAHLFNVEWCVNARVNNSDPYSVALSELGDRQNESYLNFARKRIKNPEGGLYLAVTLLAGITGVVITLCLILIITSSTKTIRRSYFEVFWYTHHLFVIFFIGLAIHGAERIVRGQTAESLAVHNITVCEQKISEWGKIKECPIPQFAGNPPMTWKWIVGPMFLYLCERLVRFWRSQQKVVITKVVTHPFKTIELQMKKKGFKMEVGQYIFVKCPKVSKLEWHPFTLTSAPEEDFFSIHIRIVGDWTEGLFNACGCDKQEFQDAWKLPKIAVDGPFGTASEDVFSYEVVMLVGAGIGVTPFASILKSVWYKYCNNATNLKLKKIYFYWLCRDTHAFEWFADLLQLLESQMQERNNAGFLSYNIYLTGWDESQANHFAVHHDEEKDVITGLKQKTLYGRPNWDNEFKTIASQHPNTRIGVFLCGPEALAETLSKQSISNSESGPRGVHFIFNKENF
T1 sequence (P13498 2-195 partner limits assumed): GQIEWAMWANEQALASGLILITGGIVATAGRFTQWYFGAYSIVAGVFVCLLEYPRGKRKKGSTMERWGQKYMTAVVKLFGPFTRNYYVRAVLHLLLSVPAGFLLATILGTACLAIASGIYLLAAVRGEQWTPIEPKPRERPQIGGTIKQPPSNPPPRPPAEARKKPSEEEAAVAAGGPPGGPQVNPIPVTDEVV
Description: Neutrophils were isolated from 30 ml freshly drawn heparinized whole blood, after dextran sedimentation of erythrocytes for 30 min. The leucocyte rich plasma was layered over an equal volume of Percoll (Sigma) and centrifuged at 400 g for 15 min. […] Neutrophils were washed with PBS (pH 7.1) and centrifuged at 200 g for 10 min. Cells were resuspended in fresh HBS (containing […], 0.4 g KCl, 0.06 g Na2 HPO4×2H2 O, 0.06 g KH2 PO4, 0.1 g MgSO4×7H2 O and 1 g glucose in 1000 ml of distilled water; pH adjusted to 7.4 by 7% NaHCO3) and counted before use.
One ml of cell suspension (final cell count 10^6 cells/ml) and the test compound was placed in cuvettes. Production of reactive oxygen by neutrophils ("oxidative burst") was stimulated by addition of phorbol-myristate-acetate (PMA; final concentration 2 μM). The luminol enhanced chemiluminescence was recorded.

[4] = tested on: serum lipid peroxides (diene conjugation); assay: In vivo serum lipid peroxides, diene conjugation; parameters: species or system rat (female Sprague-Dawley); settings: rats; daily oral gavage 12 and 48 mg/kg; 2 days to 12 months; FIG. 1
Description: (§1) Test compound was given to six-week old female Sprague-Dawley rats daily by oral gavage at doses of 12 and 48 mg/kg for 12 months. The vehicle, carboxymethyl cellulose (0.5%), was given to control animals. Five rats per dose group were killed after 2 days, 5 weeks, 3, 6 and 12 months of dosing. Further groups were allowed to recover for 13 weeks without treatment after 6 and 12 months' dosing. The serum levels of lipid peroxides were measured by two different methods (diene conjugation and TBA-reactive material). For the measurement of diene conjugation, lipids extracted from serum samples (100 μl) by chloroform/methanol (2:1), dried under nitrogen and redissolved in cyclohexane, were analyzed spectrophotometrically (at 234 nm). For the analysis of TBA-reactive material serum samples (100 μl) were diluted in phosphate buffer and heated together with a TBA solution ([…]) in a boiling water bath for 15 min. The tubes were cooled, and the absorbances measured at 535 nm.

[5] = tested on: serum lipid peroxides (TBA-reactive material); assay: In vivo serum lipid peroxides, TBA-reactive material; parameters: species or system rat (female Sprague-Dawley); settings: rats; daily oral gavage 12 and 48 mg/kg; 2 days to 12 months; FIG. 2
Description: as §1

[6] = PMA 2 μM, 10^6 cells/ml, read-out: IC50, inhibition of NADPH oxidase of the neutrophils

Compound	IC50 [1] [µM]	IC50 [2] [µM]	inhibition at 1000 µM ([3]; 1 mM, PMA 2 μM, 10^6 cells/ml) [%]	other results
CC/C(=C(/CC)c1ccc(O)cc1)c1ccc(O)cc1 [diethylstilbestrol]	–	–	–	IC50 [3]: 8 µM; inhibition at 1000 µM [3]: > 99%
CN(C)CCOc1ccc(/C(=C(\CCCl)c2ccccc2)c2ccccc2)cc1 [Compound 5, 4-chloro-1,2-diphenyl-1-[4-[2-(N,N-dimethylamino)ethoxy]phenyl]-1-butene]	36	410	–	–
COc1ccc(O)c(C(C)(C)C)c1 [butylated hydroxyanisole]	0.2	1.1	–	–
Cc1c(C)c2c(c(C)c1O)CCC(C)(CCCC(C)CCCC(C)CCCC(C)C)O2 (stereo not drawn) [α-tocopherol]	43	2	–	–
CN(C)CCOc1ccc(/C(=C(/CCCl)c2ccccc2)c2ccccc2)cc1 [Compound 1, 4-chloro-1,2-diphenyl-1-[4-[2-(N,N-dimethylamino)ethoxy]phenyl]-1-butene]	18	450	–	IC50 [3]: 2.17 µM; inhibition at 1000 µM [3]: > 99%; effect on serum diene conjugation [4]: effective in decreasing both diene conjugation and TBA-reactive material in rats; effect on serum TBA-reactive material [5]: effective in decreasing both diene conjugation and TBA-reactive material in rats
Cc1c(C)c2c(c(C)c1O)CCC(C)(C(=O)O)O2 (stereo not shown) [Trolox]	–	–	59	Inhibition of NADPH oxidase of the neutrophils at 1 mM ([3]; 1 mM, PMA 2 μM, 10^6 cells/ml): no effect

More lines, main results first:

IC50 [1] [µM]	IC50 [2] [µM]	inhibition at 1000 µM ([3]; 1 mM, PMA 2 μM, 10^6 cells/ml) [%]	Compound	other results
3	0.38	> 99	CN(C)CCOc1ccc(/C(=C(/CCI)c2ccccc2)c2ccccc2)cc1 [Compound 4, 4-iodo-1,2-diphenyl-1-[4-[2-(N,N-dimethylamino)ethoxy]phenyl]-1-butene]	antioxidant potency in the t-BuOOH test compared with butylated hydroxyanisole [2]: even stronger than that of the known synthetic antioxidant butylated hydroxyanisole; IC50 [3, 6]: 2.32 µM
31	27	–	CNCCOc1ccc(/C(=C(/CCCl)c2ccccc2)c2ccc(O)cc2)cc1 [Compound 3, 4-chloro-1-(4-hydroxyphenyl)-1-[4-[2-(N-methylamino)ethoxy]phenyl]-2-phenyl-1-butene]	–
300	4.6	–	C[C@]12CC[C@@H]3c4ccc(O)cc4CC[C@H]3[C@@H]1CC[C@@H]2O [17β-estradiol]	Inhibition of NADPH oxidase of the neutrophils at 1 mM ([3]; 1 mM, PMA 2 μM, 10^6 cells/ml): no effect
8	0.18	> 99	CN(C)CCOc1ccc(/C(=C(/CCCl)c2ccccc2)c2ccc(O)cc2)cc1 [Compound 2, 4-chloro-1-(4-hydroxyphenyl)-1-[4-[2-(N,N-dimethylamino)ethoxy]phenyl]-2-phenyl-1-butene]	antioxidant potency in the t-BuOOH test compared with butylated hydroxyanisole [2]: even stronger than that of the known synthetic antioxidant butylated hydroxyanisole; IC50 [3, 6]: 2.12 µM
